According to PubChem BioAssay AID651618 (Broad Institute, 2012):
Active and inactive are the calls of the source. The rule behind the calls is not given here.

Tested on: not listed separately
Assay: replicating M. tuberculosis growth inhibition, dose response, counter-screen, dry powder, IC90 (AID 651618)
Conditions: M. tuberculosis replicating log phase, growth inhibition
For FC(F)(F)CNCCSc1nnc(-c2ccccc2)o1, the outcome was “inactive”. With FC(F)(F)Oc1ccc(-c2nnc(SCc3ccccc3)o2)cc1 the outcome was “inactive”. In the case of COc1ccccc1CSc1nnc(-c2ccccc2)o1, the outcome is reported as “inactive”. In the case of c1ccc(CSc2ncc(-c3ccccc3)o2)cc1, the outcome is reported as “inactive”. In the case of Clc1cccc(-c2nnc(SCc3ccccc3)o2)c1, the outcome is reported as “inactive”. In the case of FC(F)(F)Oc1ccccc1-c1nnc(SCc2ccccc2)o1, the outcome is reported as “inactive”. With CS(=O)(=O)c1ccccc1-c1nnc(SCc2ccccc2)o1 the outcome was “inactive”. With Fc1ccc(-c2nnc(SCc3ccccc3)o2)cc1 the outcome was “inactive”. In the case of c1ccc(CSc2nnc(-c3ccco3)o2)cc1, the outcome is reported as “inactive”. With COc1ccc(CSc2nnc(-c3ccccc3)o2)cc1 the outcome was “inactive”. In the case of c1ccc(CSc2nnc(-c3ccccc3)s2)cc1, the outcome is reported as “inactive”. In the case of Cc1ccccc1-c1nnc(SCc2ccccc2)o1, the outcome is reported as “inactive”. In the case of FC(F)(F)c1ccccc1CSc1nnc(-c2ccccc2)o1, the outcome is reported as “inactive”. In the case of c1ccc(CCc2nnc(-c3ccccc3)o2)cc1, the outcome is reported as “inactive”. In the case of N#Cc1ccc(-c2nnc(SCc3ccccc3)o2)cc1, the outcome is reported as “inactive”. With COc1ccc(-c2nnc(SCc3ccccc3)o2)cc1 the outcome was “inactive”. With O=C(Cc1ccccc1)c1nnc(-c2ccccc2)o1 the outcome was “inactive”. With N#Cc1ccc(CSc2nnc(-c3ccccc3)o2)cc1 the outcome was “inactive”. For c1ccc(-c2ccc(CSc3nnc(-c4ccccc4)o3)cc2)cc1, the outcome was “inactive”. With c1ccc(-c2nnc(SCCN3CCOCC3)o2)cc1 the outcome was “inactive”. For CS(=O)(=O)c1ccc(-c2nnc(SCc3ccccc3)o2)cc1, the outcome was “inactive”. In the case of c1ccc(CNCCSc2nnc(-c3ccccc3)o2)cc1, the outcome is reported as “inactive”. For FC(F)(F)c1cccc(-c2nnc(SCc3ccccc3)o2)c1, the outcome was “inactive”. For c1ccc(CSc2nnc(-c3ccc(-c4ccccc4)cc3)o2)cc1, the outcome was “inactive”. For Cc1ccc(CSc2nnc(-c3ccccc3)o2)cc1, the outcome was “inactive”. In the case of Fc1ccccc1-c1nnc(SCc2ccccc2)o1, the outcome is reported as “inactive”. With Clc1ccccc1CSc1nnc(-c2ccccc2)o1 the outcome was “inactive”. In the case of COc1ccc(-c2nnc(SCc3ccc(Cl)cc3)o2)cc1, the outcome is reported as “inactive”. In the case of FC(F)(F)c1ccccc1-c1nnc(SCc2ccccc2)o1, the outcome is reported as “inactive”. For Cc1nnc(SCc2ccccc2)o1, the outcome was “inactive”. For c1ccc(-c2nnc(SCc3cscn3)o2)cc1, the outcome was “inactive”. For CS(=O)(=O)c1ccccc1CSc1nnc(-c2ccccc2)o1, the outcome was “inactive”. For Brc1ccc(CSc2nnc(-c3ccccc3)o2)cc1, the outcome was “inactive”. With O=C(Cc1ccccc1)C(C(=O)c1nnc(-c2ccccc2)o1)c1ccccc1 (stereo unspecified) the outcome was “inactive”. With Clc1ccc(-c2nnc(SCc3ccccc3)o2)cc1 the outcome was “inactive”. For c1ccc(-c2nnc(SCc3ncco3)o2)cc1, the outcome was “inactive”. In the case of N#Cc1ccccc1CSc1nnc(-c2ccccc2)o1, the outcome is reported as “inactive”. With N#Cc1cccc(CSc2nnc(-c3ccccc3)o2)c1 the outcome was “inactive”. In the case of Cc1ccccc1CSc1nnc(-c2ccccc2)o1, the outcome is reported as “inactive”. In the case of Clc1ccccc1-c1nnc(SCc2ccccc2)o1, the outcome is reported as “inactive”. With c1ccc(CSc2nnc(-c3ccccn3)o2)cc1 the outcome was “inactive”. With c1ccc(CSc2nnc(Cc3ccccc3)o2)cc1 the outcome was “inactive”. With FC(F)(F)Oc1cccc(CSc2nnc(-c3ccccc3)o2)c1 the outcome was “inactive”. With CN(C)CCSc1nnc(-c2ccccc2)o1 the outcome was “inactive”. For Clc1ccc(CSc2nnc(-c3ccccc3)o2)cc1, the outcome was “inactive”. For c1ccc(CSc2nnc(-c3cnco3)o2)cc1, the outcome was “inactive”. For CS(=O)(=O)c1cccc(CSc2nnc(-c3ccccc3)o2)c1, the outcome was “inactive”. With CS(=O)(=O)c1cccc(-c2nnc(SCc3ccccc3)o2)c1 the outcome was “inactive”. For CS(=O)(=O)c1ccc(CSc2nnc(-c3ccccc3)o2)cc1, the outcome was “inactive”. With Clc1cccc(CSc2nnc(-c3ccccc3)o2)c1 the outcome was “inactive”. With FC(F)(F)c1ccc(-c2nnc(SCc3ccccc3)o2)cc1 the outcome was “inactive”. With FC(F)(F)Oc1ccccc1CSc1nnc(-c2ccccc2)o1 the outcome was “inactive”. With c1ccc(-c2nnc(SCCN3CCCC3)o2)cc1 the outcome was “inactive”. In the case of Fc1ccc(CSc2nnc(-c3ccccc3)o2)cc1, the outcome is reported as “inactive”. For c1ccc(-c2nnc(SC(c3ccccc3)c3ccccc3)o2)cc1, the outcome was “inactive”. With FC(F)(F)Oc1ccc(CSc2nnc(-c3ccccc3)o2)cc1 the outcome was “inactive”. For Cc1cccc(-c2nnc(SCc3ccccc3)o2)c1, the outcome was “inactive”. With c1ccc(CSc2nnc(-c3cc4ccccc4o3)o2)cc1 the outcome was “inactive”. For c1ccc(CSc2nnc(-c3ccncc3)o2)cc1, the outcome was “inactive”. With c1ccc(CSc2nnc(-c3cscn3)o2)cc1 the outcome was “inactive”. In the case of c1ccc(CNc2nnc(-c3ccccc3)o2)cc1, the outcome is reported as “inactive”. For Fc1cccc(-c2nnc(SCc3ccccc3)o2)c1, the outcome was “inactive”. For CC1(O)CN(CCSc2nnc(-c3ccccc3)o2)C1, the outcome was “inactive”. In the case of N#Cc1cccc(-c2nnc(SCc3ccccc3)o2)c1, the outcome is reported as “inactive”. For CN(Cc1ccccc1)c1nnc(-c2ccccc2)o1, the outcome was “inactive”. In the case of FC(F)(F)c1ccc(CSc2nnc(-c3ccccc3)o2)cc1, the outcome is reported as “inactive”. For FC1(F)CN(CCSc2nnc(-c3ccccc3)o2)C1, the outcome was “inactive”.

Tested on: M. tuberculosis replicating log phase, growth inhibition
Assay: as above
Conditions: not given
In the case of FC1(F)CCN(CCSc2nnc(-c3ccccc3)o2)CC1, the IC90 is reported as 250 µM. For COc1cccc(CSc2nnc(-c3ccccc3)o2)c1, the IC90 was 250 µM. In the case of c1ccc(CCc2nnc(SCc3ccccc3)o2)cc1, the IC90 is reported as 250 µM. Fc1ccccc1CSc1nnc(-c2ccccc2)o1 showed an IC90 of 250 µM. In the case of FC(F)(F)c1cccc(CSc2nnc(-c3ccccc3)o2)c1, the IC90 is reported as 250 µM. Work on c1ccc(CSc2nnc(C3CCCCC3)o2)cc1 yielded an IC90 of 250 µM. In the case of COCCOCCSc1nnc(-c2ccccc2)o1, the IC90 is reported as 250 µM. In the case of c1ccc(-c2nnc(SCCN3CCN(c4ccccc4)CC3)o2)cc1, the IC90 is reported as 125 µM. For Cc1cccc(CSc2nnc(-c3ccccc3)o2)c1, the IC90 was 250 µM. Work on COc1ccccc1-c1nnc(SCc2ccccc2)o1 yielded an IC90 of 250 µM. c1ccc(CSc2nnc(-c3cccnc3)o2)cc1 showed an IC90 of 250 µM. c1ccc(CSc2nnc(C3CCCC3)o2)cc1 gave an IC90 of 250 µM. Compound COc1cccc(-c2nnc(SCc3ccccc3)o2)c1 has an IC90 of 250 µM. Work on Fc1cccc(CSc2nnc(-c3ccccc3)o2)c1 yielded an IC90 of 250 µM. Cc1ccc(-c2nnc(SCc3ccccc3)o2)cc1 gave an IC90 of 125 µM. For FC(F)(F)Oc1cccc(-c2nnc(SCc3ccccc3)o2)c1, the IC90 was 250 µM. Compound c1ccc(CSc2nnc(-c3cccs3)o2)cc1 has an IC90 of 250 µM. For CC(C)c1nnc(SCc2ccccc2)o1, the IC90 was 250 µM. For c1ccc(CSc2nnc(-c3ccccc3)o2)cc1, the IC90 was 125 µM.
